Assay [1] relates to COVID-19 virus Beta variant. The class given is cell-based.
Assay [2] deals with COVID-19 virus Delta variant. The class given is cell-based.

Consider 4 compounds from patent US20250049831A1, “ANTIVIRAL USE OF BISE[…], AND BISEPOXYLIGNAN COMPOSITION AND PREPARATION OF BISE[…]” (priority 2021, published 2025).

As for `COc1cc(O)cc(C2OCC3C(c4ccc(OC5OC(CO)C(O)C(O)C5O)c(OC)c4)OCC23)c1` (centres unmarked) [compound 1], in assay [1], the “COVID-19 Beta virus SI” value amounted to 7.64. Besides, the “COVID-19 Delta virus SI” value in assay [2] is 7.14.

As to `COc1ccc(C2OCC3C(c4ccc(OC(=O)C(C)c5ccc(CC(C)C)cc5)c(OC)c4)OCC23)cc1OC` (centres unmarked) [compound 6], the “COVID-19 Beta virus SI” value in assay [1] turned out to be 3.43. In addition, the “COVID-19 Delta virus SI” value in assay [2] is listed as 1.79.

Regarding `COc1ccc([C@H]2OC[C@H]3[C@@H]2CO[C@H]3c2ccc(O[C@@H]3O[C@H](CO)[C@@H](O)[C@H](O)[C@H]3O)c(OC)c2)cc1OC` [compound 2], the “COVID-19 Beta virus SI” value in assay [1] turned out to be 7.10. Also, in assay [2], the “COVID-19 Delta virus SI” value was 6.86.

For `COc1ccc(C2OCC3C(c4ccc(OC)c(OC)c4)OCC23)cc1O` (centres unmarked) [compound 3], in assay [1], the “COVID-19 Beta virus SI” value was determined as 2.12. Further, in assay [2], the “COVID-19 Delta virus SI” value came to 2.11.
